Results published in ChEMBL document CHEMBL1152912, “Protective effects of a benzoxazine derivative against oxidized LDL-induced apoptosis and the increases of integrin beta4, ROS, NF-kappaB and P53 in human umbilical vein endothelial cells” (Bioorg Med Chem Lett, 2009).
Activity calls are given as the source filed them. No cut-off for these calls is given here.

Assays:
[1] = test system: HUVEC; assay: Antiapoptotic activity against low density lipoprotein-induced apoptosis in HUVEC cells assessed as inhibition of integrin beta4 level at 50 uM by immunofluorescence technique; assay type: functional, cell-based; details: Homo sapiens
[2] = test system: HUVEC; assay: Antiapoptotic activity against low density lipoprotein-induced apoptosis in HUVEC cells assessed as apoptotic cell after 24 hrs by TUNEL assay; assay type: functional, cell-based; details: Homo sapiens
[3] = test system: HUVEC; assay: Antiapoptotic activity against low density lipoprotein-induced vascular apoptosis in HUVEC cells assessed as modulation of P53 level by lase scanning confocal microscope; assay type: functional, cell-based; details: Homo sapiens
[4] = test system: HUVEC; assay: Antiapoptotic activity against low density lipoprotein-induced apoptosis in HUVEC cells assessed as nuclear fragmentation after 24 hrs by acridin orange staining; assay type: functional, cell-based; details: Homo sapiens
[5] = test system: HUVEC; assay: Antiapoptotic activity against low density lipoprotein-induced vascular apoptosis in HUVEC cells assessed as translocation of NF-kappaB across the nucleus by lase scanning confocal microscope; assay type: functional, cell-based; details: Homo sapiens
[6] = test system: HUVEC; assay: Antiapoptotic activity against low density lipoprotein-induced vascular apoptosis in HUVEC cells assessed as modulation of NF-kappaB level by lase scanning confocal microscope; assay type: functional, cell-based; details: Homo sapiens
[7] = test system: HUVEC; assay: Cytotoxicity against HUVEC cells assessed as reduction in low density lipoprotein-induced cell viability at 50 uM by MTT assay; assay type: cell-based; details: human
[8] = test system: HUVEC; assay: Antiapoptotic activity against low density lipoprotein-induced vascular apoptosis in HUVEC cells assessed as inhibition of ROS by lase scanning confocal microscope; assay type: functional, cell-based; details: Homo sapiens
[9] = test system: HUVEC; assay: Antiapoptotic activity against low density lipoprotein-induced apoptosis in HUVEC cells assessed as nuclear condensation after 24 hrs by acridin orange staining; assay type: functional, cell-based; details: Homo sapiens
[10] = test system: HUVEC; assay: Antiapoptotic activity against low density lipoprotein-induced apoptosis in HUVEC cells by Hoechst 33258 staining; assay type: functional, cell-based; details: Homo sapiens

For `Nc1ccc2c(c1)NC(CO)CO2` (stereo not given), which Activity [1] is on record?
The Activity was “Active”.

And the Activity [2]?
The Activity was “Active”.

What about the Activity [3] of the same compound?
The Activity was “Active”.

What about the Activity [4] of the same compound?
Its Activity is “Active”.

And the Activity [5]?
Its Activity is “Active”.

And the Activity [6]?
Its Activity is “Active”.

What about the Activity [7] of the same compound?
Its Activity is “Toxic”.

What about the Activity [8] of the same compound?
The Activity was “Active”.

What about the Activity [9] of the same compound?
The Activity was “Active”.

And the Activity [10]?
Its Activity is “Dose-dependent effect”.
